Data published in patent US20090209460A1, “COMPOSITIONS AND METHODS FOR TREATING OBESITY AND RELATED METABOLIC DISORDERS” (Amylin Pharmaceuticals, Inc., priority 2005, published 2009).
Non-standard residues stand in square brackets, D forms with d. Residues, ends and D or L forms follow the SMILES beside them. No end group written: not given here. beta turn mimic B = not defined here

How the values were obtained:
NIH/Swiss mice = assay: acute food intake assay, lean overnight-fasted NIH/Swiss mice, intraperitoneal injection; assay type: in vivo, mouse; conditions: for FI (60′, 200): % change relative to control, 60 min; for Food Intake Inhibition: mouse assay, dose of 200 mg/kg, measured at 60 minutes
In short: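 Overnight-fasted lean female NIH/Swiss mice (8-24 weeks, group housed) received vehicle or peptide intraperitoneally at time 0, then pre-weighed standard chow. Food consumed was weighed at 30, 60 and 120 min and expressed as % change versus control.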

[1] = degradation in vitro in plasma, serial MS analyses; assay type: in vitro ADME
Source text: Doses at which we observed herein an absence of anorectic effect (in mice) were 1-2 orders of magnitude higher than the lower U8 dose for maximal hemodynamic effects in dogs (Sumi et al. 1987).

[2] = cumulative weight gain in rats with diet induced obesity (rat DIO), subcutaneous pump for seven days; assay type: in vivo; conditions: subcutaneously continuously by pump for seven days
Procedure: Both compounds were administered subcutaneously continuously by pump for seven days at the rate and dosage indicated.

[3] = body weight and food intake in mice with diet induced obesity (mouse DIO), osmotic pump; assay type: in vivo
Procedure: The effect of FN38 and related compounds on body weight and food intake in obese subjects was investigated. Mice having diet induced obesity (DIO) were used. All in vivo tests were performed with peripheral injections of peptide. […] 4-week-old male C57BL/6 mice were group housed with water and a standard pelleted mouse chow diet available ad libitum, except as noted, and were maintained on a on a high fat diet (58% kcal from fat) for 4 weeks prior to the experiment. At the end of fattening period, osmotic pumps were implanted interscapularly under anesthesia. Mice received pumps continuously delivering vehicle (50% DMSO in water or saline) or polypeptide at the dose indicated. Food intake and body weight measurements were obtained weekly.

[4] = test system: mice with diet induced obesity (mouse DIO); assay: cumulative food intake in mouse DIO after IP injection (FIGS. 6 and 7); assay type: in vivo; conditions: injected IP at t=0; measured at 30, 60, 120 and 180 min
Procedure: The activities of the following compounds are shown: A, [MimicB36] FN38; B, [His37] FN38; C,
[His35] FN38; D, [Phe33] FN38; E, [Val33] FN38; F, Des-(Ser6,Lys7,Thr8,Gln9) FN38; G, Des-Val16,Val17-FN38; H, [Phe31] FN38; I, Des-(Val16,Val17,Phe24,Ala25,Ser26,Gln27) FN38; J, Des-(Phe1,Leu2,Phe3,His4)FN38; and K, Des-(Phe24,Ala25,Ser26,Gln27)-FN38. […] Points represent mean±sd of n=4 cages (3 mice/cage). Peptide was injected IP at t=0. Food was introduced immediately after injection and amount consumed measured at t=30, 60, 120, and 180 min. In the figure, * p<0.05 vs. vehicle control; ANOVA, Dunnett's test.

[5] = brush border membrane (BBM) stability assay; assay type: in vitro ADME, human; conditions: brush border membrane extract (e.g. kidney); percent compound remaining after a 5 hour incubation, human brush border membrane assay; read-out: hBBM
In short: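 Peptides digested up to 5 h at 37 °C with human brush border membrane extract (e.g. kidney). Timepoints quenched with 50% ACN, 1% FA, centrifuged, intact peptide quantified by selected-ion mass spectrometry. Expressed as percent stable.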

| Compound | Food Intake Inhibition (NIH/Swiss mice) | cumulative food intake in mouse DIO (FIGS. 6A, 6B, 7A, 7B) [4] | remaining at 5 h [5] | also measured |
| --- | --- | --- | --- | --- |
| CC(C)C[C@H](NC(=O)[C@H](Cc1ccccc1)NC(=O)[C@@H](N)Cc1ccc(O)cc1)C(=O)N[C@@H](Cc1ccccc1)C(=O)N[C@@H](CCCNC(=N)N)C(=O)N1CCC[C@H]1C(=O)N[C@@H](CCCNC(=N)N)C(=O)N[C@@H](CC(N)=O)C(N)=O [Compound 163291, reference compound] | – | – | – | activity in food intake assays (NIH/Swiss mice; doses between 100-1000 μg/kg (up to 900 nmol/kg)): inactive; FI (60′, 200) (NIH/Swiss mice; food intake): −75%; difference in potency between U-8 and rNMU-23 (NIH/Swiss mice; food intake, mice): at least 1000 fold; degradation in vitro in plasma [1]: rapid degradation |
| CC(C)C[C@H](NC(=O)[C@H](Cc1ccccc1)NC(=O)[C@H](Cc1ccccc1)NC(=O)CNC(=O)CNC(=O)[C@H](CO)NC(=O)[C@@H]1CCCN1C(=O)[C@H](C)NC(=O)[C@@H](NC(=O)[C@@H]1CCCN1C(=O)CNC(=O)[C@H](CCC(N)=O)NC(=O)[C@H](Cc1ccc(O)cc1)NC(=O)[C@H](CCC(=O)O)NC(=O)[C@H](CC(N)=O)NC(=O)[C@@H](NC(=O)[C@H](CCCCN)NC(=O)[C@@H](N)Cc1ccc(O)cc1)C(C)C)C(C)C)C(=O)N[C@@H](Cc1ccccc1)C(=O)N[C@@H](CCCNC(=N)N)C(=O)N1CCC[C@H]1C(=O)N[C@@H](CCCNC(=N)N)C(=O)N[C@@H](CC(N)=O)C(N)=O [Compound 163293, reference compound] (H-YKVNEYQGPVAPSGGFFLFRPRN-NH2; N-terminus assumed) | – | – | – | cumulative weight gained in rat DIO (FIG. 5) [2]: reduction of cumulative weight gained; body weight gain and food intake in the DIO assay ([3]; 75 nmol/kg/day): decreased body weight gain and food intake; d 14 BWt loss ([3]; mouse DIO, day 14): 3.7%; reduction of food intake (NIH/Swiss mice; administered systemically (i.p. to mice), dose and time not stated): up to 66%; change in intake (effectiveness) (NIH/Swiss mice; food intake over 30 min, mice): −60%; FI (60′, 200) (NIH/Swiss mice; food intake): −37.5%; ED50 at t = 60 (NIH/Swiss mice; food intake, t = 60): 0.017 mg/kg; ED50 for effect on food intake (NIH/Swiss mice; over 30 min, i.p., mice): 6.2 nmol/kg |
| CC(C)C[C@H](NC(=O)[C@H](Cc1ccccc1)NC(=O)[C@H](Cc1ccc(O)cc1)NC(=O)CNC(=O)[C@H](CCCNC(=N)N)NC(=O)[C@H](CO)NC(=O)[C@H](CCC(N)=O)NC(=O)[C@H](CO)NC(=O)[C@H](C)NC(=O)[C@H](Cc1ccccc1)NC(=O)[C@H](CO)NC(=O)[C@H](Cc1ccc(O)cc1)NC(=O)[C@H](Cc1c[nH]cn1)NC(=O)[C@H](Cc1ccccc1)NC(=O)[C@H](CC(C)C)NC(=O)[C@@H](N)Cc1ccccc1)C(=O)N[C@@H](Cc1ccccc1)C(=O)N[C@@H](CCCNC(=N)N)C(=O)N1CCC[C@H]1C(=O)N[C@@H](CCCNC(=N)N)C(=O)N[C@@H](CC(N)=O)C(N)=O [Des-(Lys7-Pro23)FN38] (H-FLFHYSFASQSRGYFLFRPRN-NH2; N-terminus assumed) | −26% | reduction of cumulative food intake | 95% | – |
| CC(C)C[C@H](NC(=O)[C@H](CCCCN)NC(=O)[C@H](CCC(N)=O)NC(=O)[C@@H](NC(=O)[C@H](CCCCN)NC(=O)[C@H](CO)NC(=O)[C@H](Cc1ccc(O)cc1)NC(=O)[C@H](Cc1c[nH]cn1)NC(=O)[C@H](Cc1ccccc1)NC(=O)[C@H](CC(C)C)NC(=O)[C@@H](N)Cc1ccccc1)[C@@H](C)O)C(=O)NCC(=O)N[C@@H](CCCCN)C(=O)N[C@@H](CO)C(=O)N[C@@H](CC(N)=O)C(=O)N[C@@H](CCC(=O)O)C(=O)N[C@@H](CCC(=O)O)C(=O)N[C@@H](CC(C)C)C(=O)N[C@@H](CCC(N)=O)C(=O)N[C@@H](CO)C(=O)N1CCC[C@H]1C(=O)N[C@@H](CO)C(=O)N[C@@H](CCCNC(=N)N)C(=O)NCC(=O)N[C@@H](Cc1ccc(O)cc1)C(=O)N[C@@H](Cc1ccccc1)C(=O)N[C@@H](CC(C)C)C(=O)N[C@@H](Cc1ccccc1)C(=O)N[C@@H](CCCCN)C(=O)N1CCC[C@H]1C(=O)N[C@@H](CCCNC(=N)N)C(=O)N[C@@H](CC(N)=O)C(N)=O [Des-(Val16,Val17,Phe24-Gln27)[K35]FN38] (H-FLFHYSKTQKLGKSNEELQSPSRGYFLFKPRN-NH2; N-terminus assumed) | −54% | reduction of cumulative food intake | 76% | – |
| CC(C)C[C@H](NC(=O)[C@H](CCCCN)NC(=O)[C@H](CCC(N)=O)NC(=O)[C@@H](NC(=O)[C@H](CCCCN)NC(=O)[C@H](CO)NC(=O)[C@H](Cc1ccc(O)cc1)NC(=O)[C@H](Cc1c[nH]cn1)NC(=O)[C@H](Cc1ccccc1)NC(=O)[C@H](CC(C)C)NC(=O)[C@@H](N)Cc1ccccc1)[C@@H](C)O)C(=O)NCC(=O)N[C@@H](CCCCN)C(=O)N[C@@H](CO)C(=O)N[C@@H](CC(N)=O)C(=O)NCC(=O)N[C@@H](Cc1ccc(O)cc1)C(=O)N[C@@H](Cc1ccccc1)C(=O)N[C@@H](CC(C)C)C(=O)N[C@@H](Cc1ccccc1)C(=O)N[C@@H](CCCNC(=N)N)C(=O)N1CCC[C@H]1C(=O)N[C@@H](CCCNC(=N)N)C(=O)N[C@@H](CC(N)=O)C(N)=O [Des-(Val16-Arg29)FN38] (H-FLFHYSKTQKLGKSNGYFLFRPRN-NH2; N-terminus assumed) | −42% | reduction of cumulative food intake | 91% | – |
| CC(C)C[C@H](NC(=O)[C@H](CCCCN)NC(=O)[C@H](CCC(N)=O)NC(=O)[C@@H](NC(=O)[C@H](CCCCN)NC(=O)[C@H](CO)NC(=O)[C@H](Cc1ccc(O)cc1)NC(=O)[C@H](Cc1c[nH]cn1)NC(=O)[C@H](Cc1ccccc1)NC(=O)[C@H](CC(C)C)NC(=O)[C@@H](N)Cc1ccccc1)[C@@H](C)O)C(=O)NCC(=O)N[C@@H](CCCCN)C(=O)N[C@@H](CO)C(=O)N[C@@H](CC(N)=O)C(=O)N[C@@H](CO)C(=O)N[C@@H](CCCNC(=N)N)C(=O)NCC(=O)N[C@@H](Cc1ccc(O)cc1)C(=O)N[C@@H](Cc1ccccc1)C(=O)N[C@@H](CC(C)C)C(=O)N[C@@H](Cc1ccccc1)C(=O)N[C@@H](CCCNC(=N)N)C(=O)N1CCC[C@H]1C(=O)N[C@@H](CCCNC(=N)N)C(=O)N[C@@H](CC(N)=O)C(N)=O [Des-(Val16-Gln27)FN38] (H-FLFHYSKTQKLGKSNSRGYFLFRPRN-NH2; N-terminus assumed) | −42% | reduction of cumulative food intake | 80% | – |
| CC(C)C[C@H](NC(=O)[C@H](CCCCN)NC(=O)[C@H](CCC(N)=O)NC(=O)[C@@H](NC(=O)[C@H](CCCCN)NC(=O)[C@H](CO)NC(=O)[C@H](Cc1ccc(O)cc1)NC(=O)[C@H](Cc1c[nH]cn1)NC(=O)[C@H](Cc1ccccc1)NC(=O)[C@H](CC(C)C)NC(=O)[C@@H](N)Cc1ccccc1)[C@@H](C)O)C(=O)NCC(=O)N[C@@H](CCCCN)C(=O)N[C@@H](CO)C(=O)N[C@@H](CC(N)=O)C(=O)N[C@H](C(=O)N[C@H](C(=O)N[C@@H](CCC(=O)O)C(=O)N[C@@H](CCC(=O)O)C(=O)N[C@@H](CC(C)C)C(=O)N[C@@H](CCC(N)=O)C(=O)N[C@@H](CO)C(=O)N1CCC[C@H]1C(=O)N[C@@H](Cc1ccccc1)C(=O)N[C@@H](C)C(=O)N[C@@H](CO)C(=O)N[C@@H](CCC(N)=O)C(=O)N[C@@H](CO)C(=O)N[C@@H](CCCNC(=N)N)C(=O)NCC(=O)N[C@@H](Cc1ccc(O)cc1)C(=O)N[C@@H](Cc1ccccc1)C(=O)N[C@@H](Cc1ccccc1)C(=O)N[C@@H](Cc1ccccc1)C(=O)N[C@@H](CCCNC(=N)N)C(=O)N1CCC[C@H]1C(=O)N[C@@H](CCCNC(=N)N)C(=O)N[C@@H](CC(N)=O)C(N)=O)C(C)C)C(C)C [[Phe33]FN38] (H-FLFHYSKTQKLGKSNVVEELQSPFASQSRGYFFFRPRN-NH2; N-terminus assumed) | −32% | either not active or weakly active | 67% | – |
| FLFHYSKTQKLGKSNVVEELQSPFASQSRGYFLFR(beta turn mimic B)RN-NH2 (FLFHYSKTQKLGKSNVVEELQSPFASQSRGYFLFR[beta turn mimic B]RN-NH2; reading uncertain) [Compound A] | – | either not active or weakly active | – | – |
